This assay deals with T1, human M4 muscarinic acetylcholine receptor (Homo sapiens, UniProt P08173).
T1 construct: expressed in transfected cells; host or cells: CHO-K1
T1 sequence (P08173 1-479): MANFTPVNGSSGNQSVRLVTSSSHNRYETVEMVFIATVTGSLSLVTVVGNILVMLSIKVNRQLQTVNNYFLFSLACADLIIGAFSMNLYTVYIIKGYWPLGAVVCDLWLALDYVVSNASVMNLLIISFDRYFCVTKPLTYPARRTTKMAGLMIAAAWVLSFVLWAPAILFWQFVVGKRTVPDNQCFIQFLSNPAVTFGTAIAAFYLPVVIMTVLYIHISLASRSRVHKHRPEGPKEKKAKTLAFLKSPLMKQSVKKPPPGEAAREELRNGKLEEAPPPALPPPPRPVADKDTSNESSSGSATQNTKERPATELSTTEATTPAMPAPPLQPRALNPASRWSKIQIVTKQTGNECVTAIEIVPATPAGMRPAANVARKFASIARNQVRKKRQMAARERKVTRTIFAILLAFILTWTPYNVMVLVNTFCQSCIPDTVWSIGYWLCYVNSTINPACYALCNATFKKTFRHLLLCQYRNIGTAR
Kind of assay: human FLIPR-based M4 PAM assay, CHO-K1 cells stably transfected with human M4 receptor and chimeric G-protein Gαqi5. Format: cell-based. Particulars: inflection point (IP) of dose response curve; acetylcholine added at 20% of maximum response; CHO-K1 human M4/Gαqi5, FLIPR Tetra. The method, boiled down:
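CHO-K1 cells were loaded with calcium dye at 37 °C for ~1 h. Fluorescence (ex 470–495/em 515–575 nm) was read for 4 min after test compound at increasing concentrations, then 3.5 min after acetylcholine at an EC20; sometimes a third addition at EC70 followed. The value is the inflection point of a 4-parameter logistic fit.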

Molecules are shown by their SMILES.

In the case of `COc1ccc(OC2CCN(c3nc(C(=O)N[C@@H]4CCCc5ccccc54)nc(Cl)c3C)CC2)cn1` [Example 223, (R)-4-chloro-6-(4-((6-methoxypyridin-3-yl)oxy)piperidin-1-yl)-5-methyl-N-(1,2,3,4-tetrahydronaphthalen-1-yl)pyrimidine-2-carboxamide], the EC50 is 3.41 µM.

In turn, `COc1ccc(OC2CCN(c3nc(C(=O)N[C@H]4CCCc5ccccc54)nc(Cl)c3C)CC2)cn1` [Example 224, (S)-4-chloro-6-(4-((6-methoxypyridin-3-yl)oxy)piperidin-1-yl)-5-methyl-N-(1,2,3,4-tetrahydronaphthalen-1-yl)pyrimidine-2-carboxamide] had a 50% effective concentration (EC50) of 4.85 µM. Consider `COc1ccc(OC2CCN(c3nc(C(=O)NCc4cnsc4)nc(Cl)c3C)CC2)cn1` [Example 225, 4-chloro-N-(isothiazol-4-ylmethyl)-6-(4-((6-methoxypyridin-3-yl)oxy)piperidin-1-yl)-5-methylpyrimidine-2-carboxamide], for which the 50% effective concentration (EC50) was 0.321 µM. With `COc1ccc(OC2CCN(c3nc(C(N)=O)nc(Br)c3C)CC2)cn1` [Example 225A, 4-bromo-6-(4-((6-methoxypyridin-3-yl)oxy)piperidin-1-yl)-5-methylpyrimidine-2-carboxamide], the response was half-maximal at 0.062 µM (EC50). `COc1ccc(OC2CCN(c3nc(S(C)(=O)=O)nc(Cl)c3C)CC2)cn1` [Example 226, 4-Chloro-6-(4-((6-methoxypyridin-3-yl)oxy)piperidin-1-yl)-5-methyl-2-(methylsulfonyl)pyrimidine] registered a concentration for a half-maximal effect (EC50) of 0.231 µM. In turn, `COc1ccc(OC2CCN(c3nc(OC)nc(Cl)c3C)CC2)cn1` [Example 227, 4-Chloro-2-methoxy-6-(4-((6-methoxypyridin-3-yl)oxy)piperidin-1-yl)-5-methylpyrimidine] registered a half-maximal effective concentration (EC50) of 0.055 µM. As for `COc1ccc(OC2CCN(c3nc(NCCO)nc(Cl)c3C)CC2)cn1` [Example 228, 2-((4-Chloro-6-(4-((6-methoxypyridin-3-yl)oxy)piperidin-1-yl)-5-methylpyrimidin-2-yl)amino)ethan-1-ol], it took 0.156 µM to reach a half-maximal effect (EC50). With `COc1ccc(OC2CCN(c3ncnc(N4CCc5scnc5C4)c3C)CC2)cn1` [Example 229, 5-(6-(4-((6-methoxypyridin-3-yl)oxy)piperidin-1-yl)-5-methylpyrimidin-4-yl)-4,5,6,7-tetrahydrothiazolo[4,5-c]pyridine] the figure was 0.807 µM; with `COc1ccc(OC2CCN(c3ncnc(N4C[C@H](F)[C@@H](F)C4)c3C)CC2)cn1` [Example 230, 4-((3S,4S)-3,4-difluoropyrrolidin-1-yl)-6-(4-((6-methoxypyridin-3-yl)oxy)piperidin-1-yl)-5-methylpyrimidine], 1.04 µM; with `COc1ccc(OC2CCN(c3ncnc(N4CCC(F)(F)C4)c3C)CC2)cn1` [Example 231, 4-(3,3-difluoropyrrolidin-1-yl)-6-(4-((6-methoxypyridin-3-yl)oxy)piperidin-1-yl)-5-methylpyrimidine], 1.09 µM. With `COc1ccc(OC2CCN(c3ncnc(N4Cc5cccnc5C4)c3C)CC2)cn1` [Example 232, 6-(6-(4-((6-methoxypyridin-3-yl)oxy)piperidin-1-yl)-5-methylpyrimidin-4-yl)-6,7-dihydro-5H-pyrrolo[3,4-b]pyridine] the figure was 1.49 µM. Regarding `COc1ccc(OC2CCN(c3ncnc(N4CC5(COC5)C4)c3C)CC2)cn1` [Example 233, 6-(6-(4-((6-methoxypyridin-3-yl)oxy)piperidin-1-yl)-5-methylpyrimidin-4-yl)-2-oxa-6-azaspiro[3.3]heptane], the EC50 was determined as 2.1 µM. Consider `CNc1ncnc(N2CCC(Oc3ccc(OC)nc3)CC2)c1C` [Example 234, 6-(4-((6-methoxypyridin-3-yl)oxy)piperidin-1-yl)-N,5-dimethylpyrimidin-4-amine], for which a half-maximal effect (EC50) was put at 0.134 µM. On to `COc1ccc(OC2CCN(c3nc(O)nc(Cl)c3C)CC2)cn1` [Example 235, 4-chloro-6-(4-((6-methoxypyridin-3-yl)oxy)piperidin-1-yl)-5-methylpyrimidin-2-ol], for which a half-maximal effect (EC50) was put at 0.248 µM.

As for `COc1ccc(OC2CCN(c3ncnc(N4CC(F)(F)C4)c3C)CC2)cn1` [Example 236, 4-(3,3-difluoroazetidin-1-yl)-6-(4-((6-methoxypyridin-3-yl)oxy)piperidin-1-yl)-5-methylpyrimidine], the EC50 stood at 0.228 µM.

Compound `COc1ccc(OC2CCN(c3ncnc(N4CCCC4)c3C)CC2)cn1` [Example 237, 4-(4-((6-methoxypyridin-3-yl)oxy)piperidin-1-yl)-5-methyl-6-(pyrrolidin-1-yl)pyrimidine] displayed an EC50 of 1.82 µM.

Take `COc1ccc(OC2CCN(c3ncnc(N4CC5CC4CO5)c3C)CC2)cn1` (stereo not drawn) [Example 238, 5-(6-(4-((6-methoxypyridin-3-yl)oxy)piperidin-1-yl)-5-methylpyrimidin-4-yl)-2-oxa-5-azabicyclo[2.2.1]heptane]: the EC50 came to 3.06 µM.

Compound `COc1ccc(OC2CCN(c3ncnc(NCCC(F)(F)F)c3C)CC2)cn1` [Example 239, 6-(4-((6-methoxypyridin-3-yl)oxy)piperidin-1-yl)-5-methyl-N-(3,3,3-trifluoropropyl)pyrimidin-4-amine] yielded a half-maximal effective concentration (EC50) of 3.2 µM. With `COc1ccc(OC2CCN(c3ncnc(N(C)CCc4ccccn4)c3C)CC2)cn1` [Example 240, 6-(4-((6-methoxypyridin-3-yl)oxy)piperidin-1-yl)-N,5-dimethyl-N-(2-(pyridin-2-yl)ethyl)pyrimidin-4-amine] the figure was 0.413 µM; with `COc1ccc(OC2CCN(c3nc(CO)nc(C)c3C)CC2)cn1` [Example 241, (4-(4-((6-Methoxypyridin-3-yl)oxy)piperidin-1-yl)-5,6-dimethylpyrimidin-2-yl)methanol], 0.042 µM; with `COc1ccc(OC2CCN(c3ncnc(C)c3C)CC2)cn1` [Example 242, 4-(4-((6-methoxypyridin-3-yl)oxy)piperidin-1-yl)-5,6-dimethylpyrimidine], 0.143 µM. Take `C=Cc1ncnc(N2CCC(Oc3ccc(OC)nc3)CC2)c1C` [Example 243, 4-(4-((6-methoxypyridin-3-yl)oxy)piperidin-1-yl)-5-methyl-6-vinylpyrimidine]: the 50% effective concentration (EC50) worked out at 0.342 µM. The compound `Cc1c(-c2cccnc2)ncnc1N1CCC(Oc2cccc(C#N)c2)CC1` [Example 244, 3-((1-(5-methyl-6-(pyridin-3-yl)pyrimidin-4-yl)piperidin-4-yl)oxy)benzonitrile] showed a 50% effective concentration (EC50) of 0.461 µM. In the case of `C=Cc1ncnc(N2CCC(Oc3cccc(C#N)c3)CC2)c1C` [Example 245, 3-((1-(5-methyl-6-vinylpyrimidin-4-yl)piperidin-4-yl)oxy)benzonitrile], the midpoint of the response, the EC50, lay at 0.484 µM. Consider `COc1ccc(OC2CCN(c3ncnc(-c4ccc(F)nc4)c3C)CC2)cn1` [Example 246, 4-(6-fluoropyridin-3-yl)-6-(4-((6-methoxypyridin-3-yl)oxy)piperidin-1-yl)-5-methylpyrimidine], for which the EC50 was 0.633 µM. With `Cc1cncc(-c2ncnc(N3CCC(Oc4cccc(C#N)c4)CC3)c2C)c1` [Example 247, 3-((1-(5-methyl-6-(5-methylpyridin-3-yl)pyrimidin-4-yl)piperidin-4-yl)oxy)benzonitrile], the midpoint of the response, the EC50, lay at 1.13 µM. The compound `CCCc1ncnc(N2CCC(Oc3ccc(OC)nc3)CC2)c1C` [Example 248, 4-(4-((6-methoxypyridin-3-yl)oxy)piperidin-1-yl)-5-methyl-6-propylpyrimidine] yielded a concentration for a half-maximal effect (EC50) of 1.55 µM.

For the origin of these results see patent US11319298B2 (Merck Sharp & Dohme Corp., priority 2016, dated 2022).
